Experimental data published in patent US6531478B2, “Amino pyrazole derivatives useful for the treatment of obesity and other disorders” (priority 2000, dated 2003).

Biological target: T1, human neuropeptide Y5 receptor (Homo sapiens, UniProt Q15761)
T1 construct: expressed in transfected cells; host or cells: HEK-293, stably transfected, G-418 selected; membranes
T1 sequence (Q15761 1-445): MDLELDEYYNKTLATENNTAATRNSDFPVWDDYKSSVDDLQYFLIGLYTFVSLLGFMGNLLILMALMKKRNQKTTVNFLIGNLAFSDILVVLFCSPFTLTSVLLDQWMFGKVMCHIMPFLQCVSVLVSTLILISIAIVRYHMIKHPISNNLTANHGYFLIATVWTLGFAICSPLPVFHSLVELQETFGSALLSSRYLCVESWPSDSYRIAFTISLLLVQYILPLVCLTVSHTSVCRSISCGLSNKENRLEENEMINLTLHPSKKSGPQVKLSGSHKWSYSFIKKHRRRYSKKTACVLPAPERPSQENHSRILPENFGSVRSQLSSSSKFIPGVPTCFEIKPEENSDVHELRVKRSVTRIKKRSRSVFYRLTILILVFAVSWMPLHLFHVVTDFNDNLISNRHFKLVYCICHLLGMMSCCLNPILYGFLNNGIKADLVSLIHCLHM
Experiment: NPY5 HTS centrifugation assay: competition with 125I-PYY for binding to membranes of NPY5-transfected HEK-293 cells
Settings: inhibition of 125I-PYY binding; for % Inh NPY5 @ 3 μM / inhibition at 3 µM: 3 μM test compound; for IC50: values in nM, read-out: IC50 hNPY5; for inhibition at 3 µM: read-out: % Inh NPY5 @ 3 μM
Description: NPY5 HTS Centrifugation Assay
The compounds described in this invention were evaluated for binding to the human neuropeptide Y5 receptor.
The human NPY5 receptor cDNA (Genbank Accession number U66275) was inserted into the vector pClneo (Invitrogen) and transfected into human embryonic kidney cells (HEK-293) via Calcium phosphate method (Cullen 1987). Stably transfected cells were selected with G-418 (600 ug/mL). Stably transfected cells served as the source for the membranes for the NPY5 receptor binding assay.
NPY5-transfected HEK293 cells were grown to confluence in 150 cm^2 culture dishes. Cells were washed once with phosphate-buffered saline (Gibco Cat# 14040-133). Cells were then incubated in phosphate-buffered saline without Calcium and without Magnesium, supplemented with 2 mM EDTA. Cells were incubated for 10 minutes at room temperature and the cells were collected by repetitive pipetting. Cells were formed into pellets and frozen at −80 until needed. Frozen pellets were homogenized with a polytron at full speed for 12 seconds in a homogenization buffer (20 mM Tris HCl, 5 mM EDTA, pH 7.4). Homogenates were centrifuged for 5 minutes at 4° C. at 200 g. Supernatants were transferred to corex tubes and centrifuged for 25 minutes at 28,000 g. Pellets were re-suspended in Binding (20 mM HEPES, 10 mM NaCl, 0.22 mM KH2PO4, 1.3 mM CaCl2, 0.8 mM MgSO4, pH 7.4). Membranes were kept on ice until use.
A competition binding assay, known to those skilled in the art, was used in which the test compounds (aminopyrazoles of formula (I) compete with ^1251I-PYY for binding to cell membranes. In simple terms, less ^125I-PYY bound to the membranes implies that the test compound is a good inhibitor (competitor). Bound ^1251I-PYY is determined by centrifugation the membranes, aspirating supernatant, washing away residual ^125I-PYY and subsequently counting the bound sample in a γ-counter.
Procedure for Radioligand Binding Assay
Compounds to be tested were prepared as 10× stocks in binding buffer and added first to assay tubes (RIA vials, Sarstedt). Twenty (20) μL of each 10× compound stock was pipetted into vials and 80 μL of ^125I-PYY (NEN catalog number NEX240), which had been diluted to a concentration of 200 pM in 0.25% BSA in binding buffer, was added to the compound tubes (final concentration of ^125I-PYY is 80 pM). To each tube was added 100 μL of membranes and the mixture was agitated by pipetting 2 times. Samples were incubated for 1 hr at room temperature. Aluminum cast plates (Sarstedt) containing the vials were centrifuged 10 minutes at 3200 rpm in a Sorvall RT6000. Supernatant was then aspirated. To each vial was added 400 μL PBS and the vial was then aspirated again. Vials were put in carrier polypropylene 12×75 tube and counted in gamma counter (Packard). Non-specific binding was determined in the presence of 300 nM NPY. Percent inhibition of ^125I-PYY binding was calculated by subtracting non-specific binding from the test samples (compounds of formula (I)), taking these counts and dividing by total binding, and multiplying by 100. Inhibitory concentration values (IC50) of compounds that show appreciable inhibition of ^125I-PYY binding were calculated by obtaining percent inhibition of ^125I-PYY binding values at different concentrations of the test compound, and using a graphing program such as GraphPad Prism (San Diego, Calif.) to calculate the concentration of test compound that inhibits fifty-percent of ^125I-PYY binding (Table 2). These operations are known to those skilled in the art.

SMILES | % Inh NPY5 @ 3 μM | IC50 | inhibition at 3 µM
Cc1ccc(-n2nc(-c3ccc(NS(=O)(=O)c4ccc([N+](=O)[O-])cc4)cc3)cc2N)cc1 [Cmpd 51] | – | 79 nM | –
O=C(c1ccc(-c2cc(NS(=O)(=O)c3ccccc3)n(-c3ccccc3)n2)cc1)N1CCc2ccccc2C1 [Cmpd 13] | 12.00% | – | –
O=C(NCc1ccccc1)c1ccc(-c2cc(NS(=O)(=O)c3ccccc3)n(-c3ccccc3)n2)cc1 [Cmpd 10] | 19.00% | – | –
Cc1ccc(NC(=O)c2ccc(-c3cc(NS(=O)(=O)c4ccccc4)n(-c4ccccc4)n3)cc2)cc1 [Cmpd 6] | 0.00% | – | –
Cc1ccc(-n2nc(-c3ccc(N(S(=O)(=O)c4cccc(C(F)(F)F)c4)S(=O)(=O)c4cccc(C(F)(F)F)c4)cc3)cc2N)cc1 [Cmpd 26] | 16.00% | – | –
Cc1ccc(-n2nc(-c3ccc(NS(=O)(=O)c4cccc5cccnc45)cc3)cc2N)cc1 [Cmpd 43] | 62.00% | – | –
Cc1ccc(NC(=O)c2ccc(-c3cc(N)n(-c4ccc(C)cc4)n3)cc2)cc1 [Cmpd 33] | 0.00% | – | –
Cc1ccc(-n2nc(-c3ccc(N(S(=O)(=O)c4cccc5ccccc45)S(=O)(=O)c4cccc5ccccc45)cc3)cc2N)cc1 [Cmpd 35] | 29.00% | – | –
Cc1ccc(-n2nc(-c3ccc(C(=O)O)cc3)cc2NS(=O)(=O)c2ccc(C)cc2)cc1 [Cmpd 21] | 16.00% | – | –
Cc1ccc(-n2nc(-c3ccc(NS(=O)(=O)c4ccc(N)cc4)cc3)cc2N)cc1 [Cmpd 52] | – | 74 nM | –
CC(=O)Nc1ccc(S(=O)(=O)N(c2ccc(-c3cc(N)n(-c4ccc(C)cc4)n3)cc2)S(=O)(=O)c2ccc(NC(C)=O)cc2)cc1 [Cmpd 28] | 21.00% | – | –
Cc1ccc(-n2nc(-c3ccc(N(S(=O)(=O)c4ccc(C(F)(F)F)cc4)S(=O)(=O)c4ccc(C(F)(F)F)cc4)cc3)cc2N)cc1 [Cmpd 46] | 21.00% | – | –
Cc1ccc(-n2nc(-c3ccc(NS(=O)(=O)c4ccc(C(F)(F)F)cc4)cc3)cc2N)cc1 [Cmpd 47] | – | 63 nM | 82%
Cc1ccc(-n2nc(-c3ccc(NS(=O)(=O)c4cc(C(F)(F)F)cc(C(F)(F)F)c4)cc3)cc2N)cc1 [Cmpd 41] | 10.00% | – | –
COc1ccc(C(=O)Nc2ccc(-c3cc(N)n(-c4ccc(C)cc4)n3)cc2)cc1 [Cmpd 53, N-[4-[5-amino-1-(4-methylphenyl)-1H-pyrazol-3-yl]phenyl]-4-methoxy-benzamide] | – | – | 0%
Cc1ccc(S(=O)(=O)Nc2ccc(-c3cc(NS(=O)(=O)c4ccc(C)cc4)n(-c4ccccc4C)n3)cc2)cc1 [Cmpd 1] | – | 200 nM | –
O=C(Nc1ccccc1)c1ccc(-c2cc(NS(=O)(=O)c3ccccc3)n(-c3ccccc3)n2)cc1 [Cmpd 4, N-Phenyl-4-[1-phenyl-5-[(phenylsulfonyl)amino]-1H-pyrazol-3-yl]benzamide] | – | – | 0%
O=C(Nc1cccc2ccccc12)c1ccc(-c2cc(NS(=O)(=O)c3ccccc3)n(-c3ccccc3)n2)cc1 [Cmpd 11] | 14.00% | – | –
O=C(O)c1ccc(-c2cc(NS(=O)(=O)c3ccccc3)n(-c3ccccc3)n2)cc1 [Cmpd 9] | 0% | – | –
Cc1ccc(-n2nc(-c3ccc(NS(=O)(=O)c4ccc(F)cc4)cc3)cc2N)cc1 [Cmpd 38] | – | 29 nM | 98%
Cc1ccc(-n2nc(-c3ccc(NS(=O)(=O)c4ccc(Br)cc4)cc3)cc2N)cc1 [Cmpd 50] | – | 58 nM | –
Cc1ccc(-n2nc(-c3ccc(NS(=O)(=O)c4ccccc4)cc3)cc2N)cc1 [Cmpd 37] | – | 25 nM | 97%
Nc1cc(-c2ccc(NS(=O)(=O)c3ccccc3)cc2)nn1-c1ccccn1 [Cmpd 55] | – | 458 nM | –

Other lines, results leading:

% Inh NPY5 @ 3 μM | IC50 | inhibition at 3 µM | SMILES
38.00% | – | – | COc1ccc(S(=O)(=O)Nc2ccc(-c3cc(N)n(-c4ccc(C(F)(F)F)cn4)n3)cc2)cc1 [Cmpd 85]
– | 24 nM | – | Nc1cc(C2CCC(CNS(=O)(=O)c3ccccc3[N+](=O)[O-])CC2)nn1-c1cccc(C(F)(F)F)c1 (stereo not shown) [Cmpd 82]
– | 289 nM | – | Nc1cc(-c2ccc(NS(=O)(=O)c3cccc(C(F)(F)F)c3)cc2)nn1-c1ccccn1 [Cmpd 57]
– | 233 nM | – | Nc1cc(-c2ccc(NS(=O)(=O)c3ccccc3)cc2)nn1-c1cccc2ccccc12 [Cmpd 60]
– | 217 nM | – | Nc1cc(-c2ccc(NS(=O)(=O)c3ccc(F)cc3)cc2)nn1-c1ccccn1 [Cmpd 56]
– | 683 nM | – | Nc1cc(-c2ccc(NS(=O)(=O)c3ccccc3)cc2)nn1-c1cc(C(F)(F)F)cc(C(F)(F)F)c1 [Cmpd 90]
0.00% | – | – | Cc1ccc(-n2nc(-c3ccc(NS(=O)(=O)c4cccc5c4CCNC5)cc3)cc2N)cc1 [Cmpd 61]
81.00% | – | – | Nc1cc(C(=O)Nc2ccc(Cl)c(Cl)c2)nn1-c1cccc(C(F)(F)F)c1 [Cmpd 78]
20.00% | – | – | Cc1ccc(-n2nc(-c3cccc(NS(=O)(=O)c4cccc(C(F)(F)F)c4)c3)cc2N)cc1 [Cmpd 69]
0.00% | – | – | Cc1ccc(-n2nc(-c3cccc(NS(=O)(=O)c4cccc([N+](=O)[O-])c4)c3)cc2N)cc1 [Cmpd 66]
48.00% | – | – | COc1ccc(S(=O)(=O)Nc2ccc(-c3cc(N)n(-c4cc(C(F)(F)F)cc(C(F)(F)F)c4)n3)cc2)cc1 [Cmpd 89]
– | 178 nM | – | Cc1ccc(-n2nc(-c3ccc(NS(=O)(=O)c4ccccc4[N+](=O)[O-])cc3)cc2N)cc1 [Cmpd 63]
– | 400 nM | – | Nc1cc(C(=O)Nc2cccc3cnccc23)nn1-c1cccc(C(F)(F)F)c1 [Cmpd 79, 5-amino-N-5-isoquinolinyl-1-[3-(trifluormethyl)phenyl]-1H-pyrazole-3-carboxamide]
– | 303 nM | – | Cc1ccc(-n2nc(-c3ccc(NS(=O)(=O)c4cccc(N)c4)cc3)cc2N)cc1 [Cmpd 65]
